Laboratory results: patent US20100233156A1, “Treating Central Nervous System Injury with Beta and Gamma Secretase Inhibitors” (GEORGETOWN UNIVERSITY, priority 2009, published 2010)
Entries after “also recorded” stand apart in the source; their conditions may differ.

Columns and labels:
[1] = system: TBI mice (controlled cortical impact); assay: Beam walk test (fine motor coordination) after CCI; format: in vivo, mouse; settings: for foot faults (beam walk): TBI mice, 50 steps
Description: To test the effect of β-secretase on TBI outcome, the B-APP cleaving enzyme-1 (BACE1) Bace1^−/− knockout mouse was used. Bace1 is the initial rate-limiting enzyme for Aβ production. Bace1^−/− mice are unable to produce any species of Aβ (Cai et al., Nat. Neurosci. 4:233-4 (2001)), and the absence of Aβx-40 in brain homogenates by ELISA (0.1±0.09 fmol per mg protein) was confirmed. CCI surgery was performed, and the beam walk test was used to detect fine motor coordination aberrations (Fox et al., J. Neurotrauma 15:599-614 (1998)). This test examines the number of errors (foot faults) made by the right hind limb over 50 steps. The mice were trained on the test before injury, and the test was repeated on 1 day, 3 days, 7 days, 14 days, and 21 days after TBI. Injured Bace1^−/− mice made fewer foot faults at multiple time points, with a 38% final improvement over injured Bace1^+/+ mice (FIG. 4, P<0.001).
(§1) The other secretase involved in amyloidogenic processing of APP is γ-secretase, and the pharmacological inhibitor N-[N-(3,5-difluorophenacetyl-L-alanyl)]-S-phenlyglycine t-butyl ester (DAPT) was used to block enzyme activity. […] Each mouse received the initial dose 15 minutes after CCI or sham surgery and then twice daily for 21 days. This dosing regime was implemented because Aβ is known to drop after γ-secretase inhibition before recovering over several hours (Abramowski et al., J. Pharmacol. Exp. Ther. 327:411-24 (2008), El Mouedden et al., Curr. Pharm. Des. 12:671-6 (2006)). To confirm γ-secretase inhibition in DAPT-treated mice, Aβ concentrations were measured. Three hours after final drug administration, Aβ levels were reduced by 25% (13.76±0.8 fmol per mg protein (vehicle-treated TBI mice) versus 10.42±0.4 fmol per mg protein (DAPT-treated TBI mice); P<0.01), and APP carboxy-terminal fragments accumulated.
(§2) On the day after CCI, the first beam walk test was conducted. Vehicle-treated TBI mice made 50±0 foot faults and improved to 43±2 foot faults on the final day of testing (FIG. 9). […] Spatial learning with the Morris water maze was also tested.

[2] = system: γ-secretase; assay: Aβ concentrations in DAPT-treated TBI mice, to confirm γ-secretase inhibition; format: in vivo, mouse; settings: three hours after final drug administration
Description: as §1

[3] = system: TBI mice (controlled cortical impact); assay: Histological assessment of lesion volume and NeuN stereology count of CA1 neurons; format: in vivo, mouse
Description: (§3) The representative MRI images show a vehicle-treated TBI mouse with the brain lesion visible through 4 mm (8 mm×0.5 mm longitudinal sections) of tissue, whereas DAPT treatment results in damage through only 1.5 mm (3 mm×0.5 mm sections) (FIG. 13). […] The damage to the hippocampus was not as extensive as that seen in the Bacel study; however, cell loss in the CA1 region of mice after TBI was clearly visible (FIG. 16). This allowed quantification of cell loss in the hippocampus (FIG. 17). Neurons were stained with NeuN, a neuronal marker, and an unbiased stereology count was performed. TBI caused a 34% decrease in NeuN-positive cells in the CA1 region of the ipsilateral hippocampus (P<0.05). DAPT treatment attenuated this cell loss, resulting in a 10% reduction in CA1 neurons (P<0.05 versus vehicle-treated TBI mice).

[4] = system: TBI mice (controlled cortical impact); assay: MRI of brain lesion 21 days after CCI; format: in vivo, mouse
Description: Five mice in each TBI group were randomly chosen for T2-weighted magnetic resonance imaging (MRI) analysis at 21 days after trauma. […] This was confirmed by fixed brain tissue sections (FIG. 7). […] Total lesion volume was reduced by 30% in […] (FIG. 9, P<0.05).
as §3

[5] = system: TBI mice (controlled cortical impact); assay: Morris water maze (spatial learning) after CCI; format: in vivo, mouse
Description: A Morris water maze paradigm was used to assess spatial learning by training mice to locate a hidden, submerged platform using extramaze visual information (Fox et al., J. Neurotrauma 15:599-614 (1998)). The test was conducted 15-18 days after injury, and each mouse was tested for four trials per day for four consecutive days. Uninjured Bace1^+/+ mice were used as a behavioral control. Injured Bace1^+/+ mice had significant learning impairments on all 4 days of testing compared to uninjured Bace1^+/+ mice (P<0.01). Injured Bace1^−/− mice, however, improved rapidly, and on the final day of testing were indistinguishable from uninjured mice (FIG. 5, P<0.01). All groups had similar escape latencies when presented with a visual platform probe test (uninjured Bace1^+/+, 23.4±6.3 seconds; injured Bace1^+/+, 21.1±7.8 seconds; injured Bace1^−/−, 21.2±4.9 seconds).
as §1, §2

[6] = system: mouse model of stroke; settings: after ischemia and reperfusion; Arumugam et al. 2006; cited from earlier work

SMILES: C[C@H](NC(=O)Cc1cc(F)cc(F)c1)C(=O)N[C@H](C(=O)OC(C)(C)C)c1ccccc1 [DAPT, N-[N-(3,5-Difluorophenacetyl)-L-alanyl]-S-phenylglycine t-butyl ester]
- improvement in foot faults over vehicle-treated TBI mice ([1]; 21 days after injury): 42%
- foot faults (beam walk) ([1]; 21 days after injury): 25±5 foot faults
- foot faults (beam walk) ([1]; day after surgery): 48±1 foot faults
- recovery of fine motor coordination on beamwalk test ([1]; after 21 days, in words): Recovery is improved
- Aβ levels reduced ([2]; DAPT 30 mg per kg orally twice daily for 21 days, versus vehicle-treated TBI mice): 25%
- APP carboxy-terminal fragments ([2]; DAPT-treated TBI mice): accumulated
- Aβ concentration ([2]; DAPT-treated TBI mice): 10.42±0.4 fmol per mg protein
- tissue sparing (histology) ([3]; H&E sections, in words): spared large areas of cortex and subcortical white matter tracts; also recorded: Subcortical white matter tracts are spared
- reduction in CA1 neurons (NeuN-positive cells, ipsilateral hippocampus) ([3]; TBI mice, stereology count): 10%
- neuronal populations in ipsilateral CA1 versus contralateral ([3]; stereology cell counts, in words): This reduction is prevented
- lesion volume ([3]; versus vehicle control, in words): reduced
- lesion volume decreased ([3]; versus vehicle-treated TBI mice): > 70%
- lesion size by MRI ([4]; injured mice, in words): substantially reduced lesion size
- depth of tissue through which damage is visible on MRI ([4]; representative images, 0.5 mm sections): 1.5 mm
- escape latency, visible platform probe ([5]; TBI mice): 17.5 ± 3.7 s
- spatial learning in Morris water maze ([5]; TBI mice, 4 days of test, in words): indistinguishable from sham-injured mice; also recorded: prevents these deficits
- escape latency, visible platform probe ([5]; sham-operated mice): 13.6 ± 3.4 s
- infarct area [6]: reduced infarct area
- neurological function [6]: improved neurological function
